This experiment relates to Nitrosomonas eutropha D23. The experiment can be described thus: Antibiotic susceptibility (MIC) of N. eutropha D23 cultures in vitro. In kind it is cell-based. As to conditions: for MIC: 30° C., 48-72 hr, OD600, two-fold dilution series; for MIC Interpretive Criteria (phenotype of N. eutropha D23): CLSI criteria, MIC levels of the outcome stand in parentheses in the cell. How it is done: The activities of five antibiotics, each representing a different antibiotic class, were tested against Nitrosomonas eutropha D23. The antibiotics tested included clindamycin, erythromycin, gentamicin, piperacillin with or without the β-lactamase inhibitor Tazobactam, and tetracycline. These were chosen based on the Clinical and Laboratory Standards Institute (CLSI) recommendations for routine testing and reporting of phylogenetically-related proteobacteria (Pseudomonas aeruginosa) listed under Non-fastidious organisms and Non-Enterobacteriaceae in the CLSI 24th Informational Supplement (M100-S24), and also included topical or systemic antimicrobial agents commonly used against acne, such as clindamycin or tetracycline. Studies with clindamycin were included even though this antibiotic was not expected to be very effective at inhibiting Nitrosomonas, as is the case for other aerobic Gram-negative bacteria.
Minimal Inhibitory Concentrations (MICs) were determined by culturing N. eutropha D23 in decreasing concentrations of each of the five antibiotics. Bacterial growth at 30° C. was monitored for 48-72 hr by determining optical density (OD600) values in samples collected at 24 hr intervals. MIC values were identified as the lowest antibiotic concentration from a two-fold dilution series leading to no increase in OD600 measurements for the 2 or 3-day incubation period. The N. eutropha D23 phenotype in each antibiotic test was determined as Susceptible, Intermediate, or Resistant according to the MIC Interpretive Criteria provided by the CLSI. […] Clindamycin resistance observed for N. eutropha D23 is in agreement with previous reports for natural resistance of aerobic Gram-negative bacteria to this antibiotic. In addition to testing the β-lactam antibiotic piperacillin alone, the broad range β-lactamase inhibitor Tazobactam was also tested in combination with piperacillin to assess the possible expression of β-lactamase(s) by N. eutropha D23.

[1] abbreviates: Nitrosomonas eutropha, D23, read-out: MIC.

Read-outs that look alike come from different tables or passages of the source. Where only a bound is given, the exact number is not on record here.

For the compound `CCC[C@@H]1C[C@@H](C(=O)N[C@@H]([C@H]2O[C@H](SC)[C@H](O)[C@@H](O)[C@H]2O)[C@H](C)Cl)N(C)C1` [Clindamycin], the MIC under setting [1] is above 16 µg/mL.
Regarding `CC[C@H]1OC(=O)[C@H](C)[C@@H](O[C@H]2C[C@@](C)(OC)[C@@H](O)[C@H](C)O2)[C@H](C)[C@@H](O[C@@H]2O[C@H](C)C[C@H](N(C)C)[C@H]2O)[C@](C)(O)C[C@@H](C)C(=O)[C@H](C)[C@@H](O)[C@]1(C)O` [Erythromycin], the “MIC Interpretive Criteria (phenotype of N. eutropha D23)” value (shortened to “MIC Interpretive Criteria”) is given as “Susceptible (≤0.5 μg/ml)”. Also, the “MIC Interpretive Criteria” value (listed as erythromycin) is listed as “susceptibility”. Moreover, under setting [1], the MIC was 0.16 µg/mL.
For `CCN1CCN(C(=O)N[C@@H](C(=O)N[C@@H]2C(=O)N3[C@@H]2SC(C)(C)[C@@H]3C(=O)O)c2ccccc2)C(=O)C1=O` [Piperacillin], the “MIC Interpretive Criteria” value is on record as “Intermediate (32-64 μg/ml)”. The “MIC Interpretive Criteria” value (listed as piperacillin) is “intermediate resistance”. The MIC under setting [1] worked out at 64 µg/mL.
For the compound `C[C@]1(Cn2ccnn2)[C@H](C(=O)O)N2C(=O)C[C@H]2S1(=O)=O` [Tazobactam], under “in combination with piperacillin”, the “effect of adding the β-lactamase inhibitor to piperacillin on N. eutropha D23 susceptibility” value is “no increase in N. eutropha D23 susceptibility”.
With `CN(C)[C@@H]1C(O)=C(C(N)=O)C(=O)[C@@]2(O)C(O)=C3C(=O)c4c(O)cccc4[C@@](C)(O)[C@H]3C[C@@H]12` [Tetracycline], the MIC under setting [1] came out at 8 µg/mL.
As for Gentamicin, the MIC turned out to be 0.25 µg/mL and the “MIC Interpretive Criteria” value is reported as “Susceptible (≤4 μg/ml)”. Besides, under “listed as gentamicin”, the “MIC Interpretive Criteria” value is “susceptibility”.
With Piperacillin/Tazobactam, the minimal inhibitory concentration (MIC) is 64/4 and the “MIC Interpretive Criteria” value is “Intermediate”.
